Laboratory results: patent US20210317099A1, “SAFER, POTENT, AND FAST ACTING ANTIMICROBIAL AGENTS” (Purdue Research Foundation, priority 2020, published 2021)
Converted amounts (≈) assume the structure as drawn. Where two headings read alike, the source gives them in different places.

Tested on: Staphylococcus aureus NRS384 (MRSA USA300)
Experiment: Initial MIC screening, broth microdilution (CLSI)
Format: cell-based
Conditions: Staphylococcus aureus NRS384 (MRSA USA300), broth microdilution, visual reading
Experimental: Method: The minimum inhibitory concentration (MIC) of the compounds 1-187, and control antibiotics (vancomycin, linezolid) was determined using the broth microdilution method against methicillin-resistant Staphylococcus aureus (MRSA) USA 300 using the broth microdilution method according to the guidelines outlined by the Clinical and Laboratory Standards Institute (CLSI). MRSA strain was cultivated on Tryptic soy agar plates and let grow for 24 hours at 37° C. under aerobic conditions. Bacterial suspension equivalent to 0.5 McFarland standard was prepared and diluted in cation-adjusted Mueller-Hinton broth (CAMHB) to attain a bacterial concentration of 5×10^5 CFU/ml and seeded in 96-well plates. The desired concentrations of each drug and compound were added in the first row of the 96-well plates and serially diluted to achieve a concentration gradient from 64 μg/ml to 0.5 μg/mL.

[1] = Staphylococcus aureus, read-out: MIC

| SMILES | MIC [1] [µg/mL] | MIC [µg/mL] |
| --- | --- | --- |
| C=C1C(=O)O[C@H](c2cccc(Br)c2)[C@@H]1c1ccc(C#N)cc1 [Compound 1] | 8 (≈ 22.6 µM) |  |
| C=C1C(=O)O[C@H](c2ccc(OC)cc2)[C@@H]1c1ccc(Br)cc1 [Compound 2] | 8 (≈ 22.3 µM) |  |
| C=C1C(=O)O[C@H](c2ccc(OC)cc2)[C@@H]1c1cccc(Br)c1 [Compound 3] | 8 (≈ 22.3 µM) |  |
| C=C1C(=O)O[C@H](c2ccc(O)cc2)[C@@H]1c1ccc(C#N)cc1 [Compound 4] | 256 (≈ 879 µM) |  |
| CN(C)C[C@@H]1C(=O)O[C@H](c2ccccc2)[C@@H]1c1ccccc1 [Compound 5] | 16 (≈ 54.2 µM) |  |
| Cc1ccc([C@@H]2[C@H](CN(C)C)C(=O)O[C@@H]2c2ccc(C)cc2)cc1 [Compound 6] | 32 (≈ 98.9 µM) |  |
| COc1ccc([C@H]2OC(=O)[C@@H](CN(C)C)[C@H]2c2ccc(C)cc2)cc1 [Compound 7] | 32 (≈ 94.3 µM) |  |
| COc1ccc([C@H]2OC(=O)[C@@H](CN(C)C)[C@H]2c2ccccc2)cc1 [Compound 8] | > 256 |  |
| COc1ccc([C@@H]2[C@H](CN(C)C)C(=O)O[C@@H]2c2ccc(C#N)cc2)cc1 [Compound 9] | 128 (≈ 365 µM) |  |
| C=C1C(=O)O[C@H](c2cccc(F)c2F)[C@H]1c1ccccc1 [Compound 10] | 16 (≈ 55.9 µM) |  |
| CN(C)CC1C(=O)O[C@H](c2ccccc2)[C@H]1c1ccccc1 (stereo partly shown) [Compound 11] | 32 (≈ 108 µM) |  |
| C=C1C(=O)O[C@H](c2ccccc2Br)[C@@H]1c1ccc(C#N)cc1 [Compound 12] | 4 (≈ 11.3 µM) |  |
| C=C1C(=O)O[C@H](c2ccc(Br)cc2)[C@@H]1c1ccc(C#N)cc1 [Compound 13] | 4 (≈ 11.3 µM) |  |
| Cc1ccc([C@H]2OC(=O)C(CN(C)C)[C@H]2c2ccc(C#N)cc2)cc1 (stereo partly shown) [Compound 14] | > 128 |  |
| COc1ccc([C@H]2OC(=O)C(CN(C)C)[C@H]2c2ccc(C#N)cc2)cc1 (stereo partly shown) [Compound 15] | > 128 |  |
| CN(C)CC1C(=O)O[C@H](c2ccccc2)[C@@H]1c1ccc(C#N)cc1 (stereo partly shown) [Compound 16] | > 128 |  |
| COc1ccc([C@@H]2C(CN(C)C)C(=O)O[C@@H]2c2ccccc2)cc1 (stereo partly shown) [Compound 17] | 64 (≈ 197 µM) |  |
| Cc1ccc([C@H]2OC(=O)C(CN(C)C)[C@H]2c2ccccc2)cc1 (stereo partly shown) [Compound 18] | 128 (≈ 414 µM) |  |
| C=C1C(=O)O[C@H](c2cccc(OC)c2)[C@@H]1c1ccc(C#N)cc1 [Compound 19] | 64 (≈ 210 µM) |  |
| C=C1C(=O)O[C@H](c2cccc(C#N)c2)[C@@H]1c1ccc(OC)cc1 [Compound 20] | 16 (≈ 52.4 µM) |  |
| C=C1C(=O)O[C@H](c2ccc3ccccc3c2)[C@@H]1c1ccccc1 [Compound 21] |  | 32 (≈ 107 µM) |

| SMILES | MIC [1] [µg/mL] | MIC [µg/mL] |
| --- | --- | --- |
| C=C1C(=O)O[C@H](c2ccc(N)cc2)[C@@H]1c1ccccc1 [Compound 22] | 32 (≈ 121 µM) |  |
| C=C1C(=O)OC[C@@H]1c1ccccc1 [Compound 25] | > 128 |  |
| CCCCC[C@@H]1CC(CN2CCCCC2)C(=O)O1 (stereo partly shown) [Compound 26] | > 128 |  |
| COc1cc([C@H]2OC(=O)C(CN3CCCCC3)[C@H]2c2ccccc2Br)ccc1OCc1ccccc1 (stereo partly shown) [Compound 27] | > 128 |  |
| N#Cc1ccc([C@H]2COC(=O)C2CN2CCCCC2)cc1 (stereo partly shown) [Compound 28] | > 128 |  |
| C/C=C/[C@H]1OC(=O)C(CN2CCCCC2)[C@H]1c1ccc(Br)cc1 (stereo partly shown) [Compound 29] | 16 (≈ 42.3 µM) |  |
| O=C1O[C@H](c2ccc3ccccc3c2)CC1CN1CCCCC1 (stereo partly shown) [Compound 31] | > 128 |  |
| O=C1O[C@H](c2ccccc2)CC1CN1CCCCC1 (stereo partly shown) [Compound 32] | > 128 |  |
| C[C@@]1(c2ccccc2)CC(CN2CCCCC2)C(=O)O1 (stereo partly shown) [Compound 33] | > 128 |  |
| O=C1OCCC1CN1CCCCC1 (stereo not shown) [Compound 34] | > 128 |  |
| COc1ccc([C@@H]2C(CN3CCCCC3)C(=O)O[C@@H]2c2ccc(C)cc2)cc1 (stereo partly shown) [Compound 35] | 64 (≈ 169 µM) |  |
| C=C1C(=O)O[C@H](c2ccc(C#N)cc2)[C@@H]1c1ccc(C)cc1 [Compound 37] | 16 (≈ 55.3 µM) |  |
| C=C1C(=O)O[C@H](c2ccc(C#N)cc2)[C@@H]1c1ccccc1 [Compound 39] | 64 (≈ 232 µM) |  |
| C=C1C(=O)O[C@H](c2ccccc2OC)[C@@H]1c1ccccc1Br [Compound 40] | 16 (≈ 44.5 µM) |  |
| CCC[C@H]1COC(=O)C1CN1CCCCC1 (stereo partly shown) [Compound 41] | > 128 |  |
| C=C1C(=O)O[C@H](c2ccccc2OC)[C@@H]1c1ccc(C#N)cc1 [Compound 42] | 32 (≈ 105 µM) |  |
| C=C1C(=O)O[C@H](c2ccc(O)cc2)[C@@H]1c1cccc(C#N)c1 [Compound 43] | 128 (≈ 439 µM) |  |
| C=C1C(=O)O[C@H](c2c(OC)cc(OC)cc2OC)[C@@H]1c1ccc(C#N)cc1 [Compound 44] | > 128 |  |
| CCC[C@@H]1[C@H](CN2CCCCC2)C(=O)O[C@H]1c1ccc(SC)cc1 [Compound 45] | > 128 |  |
| O=C1OC[C@H](/C=C/c2ccccc2)[C@@H]1CN1CCCCC1 [Compound 46] | > 128 |  |
| O=C1O[C@H](C2CCCCC2)C[C@@H]1CN1CCCCC1 [Compound 47] | > 128 |  |

| SMILES | MIC [1] [µg/mL] | MIC [µg/mL] |
| --- | --- | --- |
| CC(C)(C)[Si](C)(C)OCC[C@H]1OC(=O)[C@@H](CN2CCCCC2)[C@H]1c1cccc(Br)c1 [Compound 48] | > 128 |  |
| C=C1C(=O)O[C@H](c2ccccc2OC)[C@@H]1c1cccc(C#N)c1 [Compound 49] | 16 (≈ 52.4 µM) |  |
| C=C1C(=O)O[C@H](c2ccccc2O)[C@@H]1c1cccc(C#N)c1 [Compound 50] | > 128 |  |
| C=C1C(=O)O[C@H](CCCCCCCC)[C@@H]1/C=C/c1ccccc1 [Compound 51] | > 128 |  |
| C=C1C(=O)O[C@H](CCO[Si](c2ccccc2)(c2ccccc2)C(C)(C)C)[C@@H]1c1ccc(C)cc1 [Compound 52] | > 128 |  |
| C=C1C(=O)O[C@H](c2ccccc2)[C@@H]1c1ccccc1Br [Compound 53] | 4 (≈ 12.2 µM) |  |
| C=C1C(=O)O[C@H](c2cc(OC)c(OC)c(OC)c2)[C@@H]1c1ccc(C#N)cc1 [Compound 54] | 128 (≈ 350 µM) |  |
| C=C1C(=O)O[C@H](c2cccc(OC)c2)[C@@H]1c1ccccc1Br [Compound 55] | 8 (≈ 22.3 µM) |  |
| C=C1C(=O)O[C@H](c2ccc(OCc3ccccc3)c(OC(C)=O)c2)[C@@H]1c1ccccc1Br [Compound 56] | > 128 |  |
| CC(=O)Oc1cc([C@H]2OC(=O)C(CN3CCOCC3)[C@H]2c2ccccc2Br)ccc1OCc1ccccc1 (stereo partly shown) [Compound 57] | > 128 |  |
| O=C1OC2(CCCC2)CC1CN1CCCCC1 (stereo not shown) [Compound 58] | > 128 |  |
| C=C1C(=O)O[C@H](/C=C/C)[C@@H]1c1ccc(Br)cc1 [Compound 59] | 32 (≈ 109 µM) |  |
| C=C1C(=O)O[C@H](c2c(OC)cc(OC)cc2OC)[C@@H]1c1ccc(C(F)(F)F)cc1 [Compound 61] | > 128 |  |
| CCN(CC)C[C@@H]1C(=O)O[C@H](c2ccccc2)[C@@H]1c1ccccc1 [Compound 62] | 16 (≈ 49.5 µM) |  |
| C=CCNC[C@@H]1C(=O)O[C@H](c2ccccc2)[C@@H]1c1ccccc1 [Compound 63] | 128 (≈ 416 µM) |  |
| C=C1C(=O)O[C@H](c2ccccc2)[C@@H]1c1ccc(C)cc1 [Compound 64] | 32 (≈ 121 µM) |  |
| C=C1C(=O)O[C@H](c2ccc(C)cc2)[C@@H]1c1ccc(C#N)cc1 [Compound 65] | 4 (≈ 13.8 µM) |  |
| C=C1C(=O)O[C@H](c2ccc(OC)cc2)[C@@H]1c1ccc(OC)cc1 [Compound 66] | 32 (≈ 103 µM) |  |
| C=C1C(=O)O[C@H](c2ccc(C)cc2)[C@@H]1c1ccc(C)cc1 [Compound 67] | 64 (≈ 230 µM) |  |
| C=C1C(=O)O[C@H](c2ccc(OC)cc2)[C@@H]1c1ccc(OC)cc1 [Compound 68] |  | 64 (≈ 206 µM) |
| C=C1C(=O)O[C@H](c2ccccc2)[C@@H]1c1ccc(C#N)cc1 [Compound 69] | > 128 |  |

| SMILES | MIC [1] [µg/mL] | MIC [µg/mL] |
| --- | --- | --- |
| C=C1C(=O)O[C@H](c2ccc(OC)cc2)[C@@H]1c1ccc(C#N)cc1 [Compound 70] | 32 (≈ 105 µM) |  |
| C=C1C(=O)O[C@H](c2ccc(C)cc2)[C@@H]1c1ccccc1 [Compound 71] | 32 (≈ 121 µM) |  |
| C=C1C(=O)O[C@H](c2ccccc2)[C@@H]1c1ccc(OC)cc1 [Compound 72] | 64 (≈ 228 µM) |  |
| C=C1C(=O)O[C@H](c2ccc(OC)cc2)[C@@H]1c1ccc(C)cc1 [Compound 74] | 16 (≈ 54.4 µM) |  |
| C=C1C(=O)O[C@H](c2ccc(OC)cc2)[C@@H]1c1ccccc1 [Compound 75] | 64 (≈ 228 µM) |  |
| O=C1OC[C@H](c2ccco2)C1CN1CCCCC1 (stereo partly shown) [Compound 76] | > 128 |  |
| C=C1C(=O)O[C@H](c2ccccc2OC)[C@@H]1c1ccc(C(F)(F)F)cc1 [Compound 77] | 8 (≈ 23 µM) |  |
| C=C1C(=O)O[C@H](c2ccc(OC)cc2)[C@@H]1c1ccccc1Br [Compound 78] | 8 (≈ 22.3 µM) |  |
| C=C1C(=O)O[C@H](c2ccc(OC)cc2)[C@@H]1c1ccc(C(F)(F)F)cc1 [Compound 79] | 8 (≈ 23 µM) |  |
| CC1(C)CC(CN2CCCCC2)C(=O)O1 (stereo not shown) [Compound 80] | > 128 |  |
| COc1ccc([C@H]2OC(=O)C(CN(C)C)[C@H]2c2ccc(OC)cc2)cc1 (stereo partly shown) [Compound 82] | > 128 |  |
| C=C1C(=O)O[C@H](c2cccc(OC)c2)[C@@H]1c1ccc(C(F)(F)F)cc1 [Compound 83] | 16 (≈ 45.9 µM) |  |
| C=C1C(=O)O[C@H](c2cccc(F)c2)[C@@H]1CCC [Compound 84] | > 128 |  |
| C=C1C(=O)O[C@H](c2ccc(OCc3ccccc3)c(OC)c2)[C@@H]1c1ccccc1Br [Compound 85] | > 128 |  |
| COc1ccc([C@@H]2C(CN(C)C)C(=O)O[C@@H]2c2ccc(C)cc2)cc1 (stereo partly shown) [Compound 86] | 128 (≈ 377 µM) |  |
| C=C1C(=O)O[C@H](c2ccc(OC)cc2)[C@@H]1c1ccccc1B1OC(C)(C)C(C)(C)O1 [Compound 87] | > 128 |  |
| C=C1C(=O)O[C@H](c2ccc(C(F)(F)F)cc2)[C@@H]1c1cccc(Br)c1 [Compound 88] | 16 (≈ 40.3 µM) |  |
| Cc1ccc([C@@H]2C(S3=NCCS3)C(=O)O[C@@H]2C2CCCCC2)cc1 (stereo partly shown) [Compound 91] | > 128 |  |
| C=C1C(=O)O[C@H](c2cc(OC)c(OC)c(OC)c2)[C@@H]1c1ccc(C(F)(F)F)cc1 [Compound 92] | 32 (≈ 78.4 µM) |  |
